The source of these data is ChEMBL document CHEMBL4392867, “Asperunguisins A-F, Cytotoxic Asperane Sesterterpenoids from the Endolichenic Fungus Aspergillus unguis” (J Nat Prod, 2019).

In experiment [1] the test system is HT-29. Briefly: Cytotoxicity in human HT-29 cells assessed as reduction in cell viability at 40 uM incubated for 48 hrs by MTT assay. It is filed as functional, cell-based.
Experiment [2] has as its system A549. Briefly: Cytotoxicity in human A549 cells assessed as reduction in cell viability at 40 uM incubated for 48 hrs by MTT assay. It counts as functional, cell-based.
Experiment [3] concerns U-251. In words: Cytotoxicity in human U251 cells assessed as reduction in cell viability at 40 uM incubated for 48 hrs by MTT assay. It is filed as functional, cell-based.
Experiment [4] concerns U-87 MG. Briefly: Cytotoxicity in human U87 cells assessed as reduction in cell viability at 40 uM incubated for 48 hrs by MTT assay. The settings on record: U-87MG ATCC. It counts as functional, cell-based.
The subject of experiment [5] is SMMC-7721. Briefly: Cytotoxicity in human SMMC7721 cells assessed as reduction in cell viability at 40 uM incubated for 48 hrs by MTT assay. It is filed as functional, cell-based.
The test system of experiment [6] is HepG2. In words: Cytotoxicity in human HepG2 cells assessed as reduction in cell viability at 40 uM incubated for 48 hrs by MTT assay. It is filed as functional, cell-based.
Experiment [7] deals with HT-29. In words: Cytotoxicity in human HT-29 cells assessed as reduction in cell viability incubated for 48 hrs by MTT assay. The settings on record: HT-29, 48 h. It is filed as functional, cell-based.
The test system of experiment [8] is A549. In words: Cytotoxicity in human A549 cells assessed as reduction in cell viability incubated for 48 hrs by MTT assay. It is filed as functional, cell-based. The settings on record: A549, 48 h.
For experiment [9], the system named is U-251. In words: Cytotoxicity in human U251 cells assessed as reduction in cell viability incubated for 48 hrs by MTT assay. It is filed as functional, cell-based. Conditions: U-251, 48 h.
Experiment [10] concerns U-87 MG. In words: Cytotoxicity in human U87 cells assessed as reduction in cell viability incubated for 48 hrs by MTT assay. It is filed as functional, cell-based, U-87MG ATCC.
Experiment [11] concerns SMMC-7721. In words: Cytotoxicity in human SMMC7721 cells assessed as reduction in cell viability incubated for 48 hrs by MTT assay. It is filed as functional, cell-based. Conditions: SMMC-7721, 48 h.
In experiment [12] the test system is HepG2. In words: Cytotoxicity in human HepG2 cells assessed as reduction in cell viability incubated for 48 hrs by MTT assay. It counts as functional, cell-based. Conditions: HepG2, 48 h.
In experiment [13] the test system is A549. In words: Induction of cell cycle arrest in human A549 cells assessed as accumulation at G1 phase incubated for 24 hrs by propidium iodide staining based flow cytometry. It counts as functional.
The test system of experiment [14] is A549. In words: Induction of cell cycle arrest in human A549 cells assessed as accumulation at G1 phase at 10 uM incubated for 24 hrs by propidium iodide staining based flow cytometry (reference value: 66.99%). It is filed as functional.
Experiment [15] concerns A549. Briefly: Induction of cell cycle arrest in human A549 cells assessed as accumulation at G2 phase at 10 uM incubated for 24 hrs by propidium iodide staining based flow cytometry (reference value: 13.54%). It counts as functional.
For experiment [16], the system named is A549. In words: Induction of cell cycle arrest in human A549 cells assessed as accumulation at S phase at 10 uM incubated for 24 hrs by propidium iodide staining based flow cytometry (reference value: 19.47%). It counts as functional.
Experiment [17] has as its system A549. Briefly: Induction of cell cycle arrest in human A549 cells assessed as accumulation at G1 phase at 15 uM incubated for 24 hrs by propidium iodide staining based flow cytometry (reference value: 66.99%). It counts as functional.
In experiment [18] the test system is A549. In words: Induction of cell cycle arrest in human A549 cells assessed as accumulation at G2 phase at 15 uM incubated for 24 hrs by propidium iodide staining based flow cytometry (reference value: 13.54%). It counts as functional.
Experiment [19] concerns A549. Briefly: Induction of cell cycle arrest in human A549 cells assessed as accumulation at S phase at 15 uM incubated for 24 hrs by propidium iodide staining based flow cytometry (reference value: 19.47%). It is filed as functional.
For experiment [20], the system named is A549. In words: Induction of cell cycle arrest in human A549 cells assessed as accumulation at G1 phase at 20 uM incubated for 24 hrs by propidium iodide staining based flow cytometry (reference value: 66.99%). It is filed as functional.
In experiment [21] the test system is A549. In words: Induction of cell cycle arrest in human A549 cells assessed as accumulation at G2 phase at 20 uM incubated for 24 hrs by propidium iodide staining based flow cytometry (reference value: 13.54%). It counts as functional.
For experiment [22], the system named is A549. In words: Induction of cell cycle arrest in human A549 cells assessed as accumulation at S phase at 20 uM incubated for 24 hrs by propidium iodide staining based flow cytometry (reference value: 19.47%). It counts as functional.
Experiment [23] concerns A549. In words: Induction of apoptosis in human A549 cells assessed as early apoptotic cells level at 10 uM incubated for 24 hrs by Annexin V-FITC and propidium iodide staining based flow cytometry (reference value: 1.81%). It is filed as functional.
Experiment [24] concerns A549. In words: Induction of apoptosis in human A549 cells assessed as late apoptotic cells level at 10 uM incubated for 24 hrs by Annexin V-FITC and propidium iodide staining based flow cytometry (reference value: 4.14%). It counts as functional.
The subject of experiment [25] is A549. In words: Induction of apoptosis in human A549 cells assessed as necrotic cells level at 10 uM incubated for 24 hrs by Annexin V-FITC and propidium iodide staining based flow cytometry (reference value: 3.23%). It counts as functional.
Experiment [26] concerns A549. Briefly: Induction of apoptosis in human A549 cells assessed as early apoptotic cells level at 15 uM incubated for 24 hrs by Annexin V-FITC and propidium iodide staining based flow cytometry (reference value: 1.81%). It counts as functional.
In experiment [27] the test system is A549. Briefly: Induction of apoptosis in human A549 cells assessed as late apoptotic cells level at 15 uM incubated for 24 hrs by Annexin V-FITC and propidium iodide staining based flow cytometry (reference value: 4.14%). It is filed as functional.
Experiment [28] relates to A549. In words: Induction of apoptosis in human A549 cells assessed as necrotic cells level at 15 uM incubated for 24 hrs by Annexin V-FITC and propidium iodide staining based flow cytometry (reference value: 3.23%). It counts as functional.
The subject of experiment [29] is A549. Briefly: Induction of apoptosis in human A549 cells assessed as early apoptotic cells level at 20 uM incubated for 24 hrs by Annexin V-FITC and propidium iodide staining based flow cytometry (reference value: 1.81%). It counts as functional.
The subject of experiment [30] is A549. In words: Induction of apoptosis in human A549 cells assessed as late apoptotic cells level at 20 uM incubated for 24 hrs by Annexin V-FITC and propidium iodide staining based flow cytometry (reference value: 4.14%). It counts as functional.
For experiment [31], the system named is A549. In words: Induction of apoptosis in human A549 cells assessed as necrotic cells level at 20 uM incubated for 24 hrs by Annexin V-FITC and propidium iodide staining based flow cytometry (reference value: 3.23%). It counts as functional.
The test system of experiment [32] is A549. In words: Cytotoxicity in human A549 cells assessed as reduction in cell viability incubated for 48 hrs in presence of pan-caspase inhibitor Z-VAD-fmk by MTT assay. It counts as functional, cell-based.
For experiment [33], the system named is A549. In words: Induction of DNA damage in human A549 cells assessed as increase in expression of gamma-H2AX protein expression by Western blot analysis. It counts as functional, cell-based.

Structures are written as SMILES. Where a name gives a salt, the structure may show the parent alone. Active and inactive are the calls of the source. The rule behind the calls is not given here.

For `CC(C)[C@@H]1CC[C@]2(C)C1=CC[C@]1(C)[C@H]3CC[C@](C)(O)[C@H](O)[C@@H](O)[C@]3(C)[C@@H](O)C[C@H]12`, the outcome in the experiment with HT-29 [1], in the experiment on A549 [2], in the experiment on U-251 [3], in the experiment with U-87 MG [4], in the experiment on SMMC-7721 [5] and with HepG2 [6] was inactive.
For the compound `C=C1CC[C@@H]2[C@@]3(C)CC=C4[C@H](C(C)C)CC[C@@]4(C)[C@@H]3C[C@H](O)[C@@]2(C)[C@H](O)[C@H]1O`, the IC50 is over 40 µM in the experiment on HT-29 [7]; 16.3 µM with A549 [8]; over 40 µM with U-251 [9]; over 40 µM in the experiment with U-87 MG [10]; over 40 µM with SMMC-7721 [11]; 8.2 µM in the experiment on HepG2 [12].
For the compound `CC(C)[C@@H]1CC[C@]2(C)C1=CC[C@]1(C)[C@H]3CC[C@]4(C)O[C@@H]4C(=O)[C@]3(C)[C@@H](O)C[C@H]12`, the outcome with HT-29 [1], in the experiment on A549 [2], in the experiment with U-251 [3], in the experiment with U-87 MG [4], in the experiment on SMMC-7721 [5] and in the experiment on HepG2 [6] was inactive.
Consider `CC1=C[C@@H](O)[C@@]2(C)[C@H](CC1)[C@@]1(C)CC=C3[C@H](C(C)C)CC[C@@]3(C)[C@@H]1C[C@@H]2O`, for which the IC50 with HT-29 [7] is 24.2 µM; in the experiment with A549 [8] it was over 40 µM; with U-251 [9] it was over 40 µM; with U-87 MG [10], over 40 µM; in the experiment with SMMC-7721 [11] it was over 40 µM; in the experiment with HepG2 [12], over 40 µM.
Take `COc1cccc2c1C(=O)c1c(O)c3c(c(O)c1C2=O)C[C@@](O)(C(=O)CO)C[C@@H]3O[C@H]1C[C@H](N)[C@H](O)[C@H](C)O1` [DOXORUBICIN HYDROCHLORIDE]: the IC50 in the experiment with U-251 [9] came out at 2.9 µM; with U-87 MG [10], 1.1 µM.
Take `C=C1CC[C@@H]2[C@@]3(C)CC=C4[C@H](C(C)C)CC[C@@]4(C)[C@@H]3C[C@H](O)[C@@]2(C)[C@@H]2O[C@@H](c3ccc(O)cc3)O[C@@H]12`: the concentration for half-maximal inhibition (IC50) was over 40 µM in the experiment on HT-29 [7]; over 40 µM in the experiment with A549 [8]; over 40 µM in the experiment with U-251 [9]; over 40 µM with U-87 MG [10]; 25.4 µM with SMMC-7721 [11]; over 40 µM in the experiment on HepG2 [12].
As to `CC(C)[C@@H]1CC[C@]2(C)C1=CC[C@]1(C)[C@H]3CC[C@@]4(C)O[C@H]([C@H]4O)[C@]3(C)[C@@H](O)C[C@H]12`, the half-inhibitory concentration (IC50) with HT-29 [7] amounted to 14.6 µM; in the experiment with A549 [8], 6.2 µM; with U-251 [9], 12.6 µM; with U-87 MG [10] it was 16.4 µM; with SMMC-7721 [11], 15.2 µM; in the experiment on HepG2 [12] it was 20.1 µM. Also, the Activity result with A549 [13] was “Dose-dependent effect”; with A549 [14], 76.4%; with A549 [15], 7.51%; in the experiment with A549 [16] it was 16.1%; in the experiment with A549 [17], 83.33%; with A549 [18] it was 5.06%. Moreover, the Activity with A549 [19] stood at 11.62%; with A549 [20], 85.86%; with A549 [21], 3.76%; in the experiment with A549 [22], 10.38%; in the experiment with A549 [23], 2.17%; in the experiment on A549 [24] it was 3.93%. The Activity with A549 [25] is given as 3.23%; in the experiment with A549 [26], 2.43%; in the experiment on A549 [27], 6.05%; in the experiment with A549 [28] it was 3.79%; in the experiment on A549 [29], 16.83%; in the experiment with A549 [30] it was 20.57%. For the same compound, the Activity in the experiment with A549 [31] was 3.3%; in the experiment with A549 [33] it was “Dose-dependent effect”. In addition, the result in the experiment on A549 [32] was inactive.
For the compound `CC(C)[C@@H]1CC[C@]2(C)C1=CC[C@]1(C)[C@H]3CC[C@]4(C)O[C@@H]4[C@@H](O)[C@]3(C)[C@@H](O)C[C@H]12`, the result in the experiment on HT-29 [1], with A549 [2], with U-251 [3], in the experiment on U-87 MG [4], with SMMC-7721 [5] and with HepG2 [6] was inactive.
